The record followed here is patent publication US6753337B2, “Alkynyl containing hydroxamic acid compounds as matrix metalloproteinase/tace inhibitors” (Wyeth Holdings Corporation, priority 1999, dated 2004).

Holding throughout (assay type): biochemical
One assay concerns the target T1, MMP-1 (Homo sapiens, UniProt P03956).
T1 sequence (P03956 100-469): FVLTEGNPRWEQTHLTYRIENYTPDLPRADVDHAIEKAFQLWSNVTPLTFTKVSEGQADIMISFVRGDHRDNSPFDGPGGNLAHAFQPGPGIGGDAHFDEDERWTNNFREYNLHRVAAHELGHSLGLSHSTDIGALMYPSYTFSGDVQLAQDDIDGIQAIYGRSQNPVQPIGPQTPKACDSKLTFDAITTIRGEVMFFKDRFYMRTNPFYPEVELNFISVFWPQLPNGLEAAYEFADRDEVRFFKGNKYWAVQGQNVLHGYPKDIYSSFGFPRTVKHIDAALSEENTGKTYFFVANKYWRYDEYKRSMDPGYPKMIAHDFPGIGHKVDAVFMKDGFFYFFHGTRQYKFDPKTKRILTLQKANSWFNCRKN
The assay can be described thus: MMP-1 inhibition (thiopeptide or fluorescent peptide substrate). To be noted: for pIC50 / IC50: read-out: MMP1 IC50; for IC50: cells that print nM.

For assay [1], the target named is TNF-α converting enzyme (TACE) (Homo sapiens, UniProt P78536). As to the kind of experiment: Test procedure for measuring TACE inhibition (fluorescent peptidyl substrate). Summed up:
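TACE (1 μg/mL final) preincubated 10 min at room temperature with 1 μM compound in 10 mM Tris pH 7.4, 10% glycerol, DMSO <1%. Treated rates tested against control by Dunnett's test (p<0.05).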

The target in another assay is MMP-13 (Homo sapiens, UniProt P45452). As to the kind of experiment: MMP-13 inhibition (thiopeptide or fluorescent peptide substrate). The conditions noted are these: read-out: MMP13 IC50. Summed up: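 Human recombinant MMP-1, MMP-9 or MMP-13 was run either with a thiopeptide substrate plus DTNB (1 mM working dilution) in 50 mM HEPES pH 7.5, 5 mM CaCl2 (colorimetric), or with a quenched fluorescent peptide in HCBC buffer pH 7.0. Reactions started with substrate; the rate slope was compared with control by Dunnett's test.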

pIC50: −log10 of the molar value. Like-named read-outs stand apart in the source and are kept apart here.

Chain of TNF-α converting enzyme (TACE) (P78536 215-824): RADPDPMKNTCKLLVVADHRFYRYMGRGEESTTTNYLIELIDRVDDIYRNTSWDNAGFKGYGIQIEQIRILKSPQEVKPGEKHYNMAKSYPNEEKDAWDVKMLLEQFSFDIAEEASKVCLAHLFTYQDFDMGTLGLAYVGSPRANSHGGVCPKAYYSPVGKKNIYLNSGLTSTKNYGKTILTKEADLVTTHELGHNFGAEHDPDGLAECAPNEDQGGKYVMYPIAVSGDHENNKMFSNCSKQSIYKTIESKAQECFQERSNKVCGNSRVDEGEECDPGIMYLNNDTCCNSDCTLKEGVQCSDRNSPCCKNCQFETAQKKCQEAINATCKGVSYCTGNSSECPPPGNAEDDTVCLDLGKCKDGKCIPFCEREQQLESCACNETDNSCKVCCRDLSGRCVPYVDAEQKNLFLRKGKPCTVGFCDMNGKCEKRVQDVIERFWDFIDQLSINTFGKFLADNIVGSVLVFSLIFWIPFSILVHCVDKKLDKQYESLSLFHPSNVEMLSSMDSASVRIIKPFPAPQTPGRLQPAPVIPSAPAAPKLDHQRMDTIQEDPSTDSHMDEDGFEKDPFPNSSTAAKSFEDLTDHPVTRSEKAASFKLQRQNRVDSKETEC

As for `CC#CCOc1ccc(S(=O)(=O)C2(C(=O)NO)CCN(C(CC)CC)CC2)cc1` [Example 27, 4-{[4-(2-Butynyloxy)phenyl]sulfonyl}-1-(3-pentanyl)-piperidine-4-carboxylic acid hydroxyamide], the pIC50 (in general, the negative decadic logarithm of the IC50, by convention in mol/L) on MMP-1 was less than 5.00; in assay [1] it was 6.77; on MMP-13 it was 6.37.
In the case of `C#CCOc1ccc(S(=O)(=O)C2(C(=O)NO)CCN(Cc3ccc(OC)cc3)CC2)cc1` [Example 28, 1-(4-Methoxy-benzyl)-4-(4-prop-2-ynyloxy-benzenesulfonyl)-piperidine-4-carboxylic acid hydroxyamide], at MMP-1, the IC50 (in general, the concentration that gives 50% inhibition) is 106 nM. The negative logarithm of the IC50 (pIC50) in assay [1] was 6.82; at MMP-13, 8.28.
The like results for `C#CCOc1ccc(S(=O)(=O)C2(C(=O)NO)CCN(Cc3ccc(Cl)cc3)CC2)cc1` [Example 29, 1-(4-Chlorobenzyl)-4-(4-prop-2-ynyloxy-benzenesulfonyl)-piperidine-4-carboxylic acid hydroxyamide] were, in that order, 91 nM, 6.90 and 8.33.
Consider `CC#CCOc1ccc(SCC2(C(=O)NO)CCN(C(=O)OC(C)(C)C)CC2)cc1` [Example 30, tert-butyl-4-({[4-(2-butynyloxy)phenyl]sulfanyl}methyl)-4-[(hydroxyamino)-carbonyl]-1-piperidinecarboxylate], for which the pIC50 was less than 5.00 at MMP-1, 6.99 in assay [1] and 5.54 at MMP-13.
The like results for `CC#CCOc1ccc(SCC2(C(=O)NO)CCNCC2)cc1` [Example 31, 4-({[4-(But-2-ynyloxy)phenyl]thio}methyl)-N-hydroxypiperidine-4-carboxamide] were, in that order, less than 5.00, 6.50 and less than 5.00.
The like results for `CC#CCOc1ccc([S+]([O-])CC2(C(=O)NO)CCN(C(=O)OC(C)(C)C)CC2)cc1` (stereo not drawn) [Example 32, tert-Butyl-4-({[4-(2-butynyloxy)phenyl]sulfinyl}methyl)-4-[(hydroxyamino)-carbonyl]-1-piperidinecarboxylate] were, in that order, less than 5.00, 7.00 and 5.56.
In the case of `CC#CCOc1ccc([S+]([O-])CC2(C(=O)NO)CCNCC2)cc1` (stereo not drawn) [Example 33, 4-[[[4-(2-Butynyloxy)phenyl]sulfinyl]methyl]-N-hydroxy-4-piperidinecarboxamide], the pIC50 at MMP-1 was less than 5.00; in assay [1] it was 6.49; at MMP-13 it was roughly 5.00.
In the same order, the values of `CC#CCOc1ccc(S(=O)(=O)CC2(C(=O)NO)CCN(C(=O)OC(C)(C)C)CC2)cc1` [Example 34, tert-Butyl-4-({[4-(but-2-ynyloxy)phenyl]sulfonyl}methyl)-4-[(hydroxyamino)-carbonyl]piperidine-1-carboxylate] are roughly 5.00, 7.48 and 6.99.
The like results for `CC#CCOc1ccc(S(=O)(=O)CC2(C(=O)NO)CCN(C(C)=O)CC2)cc1` [Example 36, 1-Acetyl-4-[[[4-(2-butynyloxy)phenyl]sulfonyl]methyl]-N-hydroxy-4-piperidinecarboxamide] were, in that order, 5.41, 8.32 and 6.42.
The like results for `CC#CCOc1ccc(S(=O)(=O)CC2(C(=O)NO)CCN(C(=O)NC(C)(C)C)CC2)cc1` [Example 38] were, in that order, roughly 5.00, 7.72 and 6.55.
Consider `CC#CCOc1ccc(S(=O)(=O)CC2(C(=O)NO)CCN(C(=O)OCc3ccccc3)CC2)cc1` [Example 40, Benzyl 4-({[4-(2-butynyloxy)phenyl]sulfonyl}methyl)-4-[(hydroxyamino)-carbonyl]-1-piperidinecarboxylate], for which the negative-log IC50 (pIC50) on MMP-1 was 6.15; in assay [1], 7.20; on MMP-13, 7.44.
In the same order, the values of `CC#CCOc1ccc(S(=O)(=O)CC2(C(=O)NO)CCN(Cc3ccccc3)CC2)cc1` [Example 41] are 5.57, 7.43 and 6.60.
Take `CC#CCOc1ccc(S(=O)(=O)CC2(C(=O)NO)CCN(C(=O)C3(C)COC(C)(C)OC3)CC2)cc1` [Example 42, 4-({[4-(2-Butynyloxy)phenyl]sulfonyl}methyl)-N-hydroxy-1-[(2,2,5-trimethyl-1,3-dioxan-5-yl)carbonyl]-4-piperidinecarboxamide]: the values for the negative logarithm of the IC50 (pIC50) (at MMP-1; in assay [1]; on MMP-13) were roughly 5.00, 7.92 and 5.79, respectively.
Consider `CC#CCOc1ccc(S(=O)(=O)CC2(C(=O)NO)CCN(C(=O)C(C)(CO)CO)CC2)cc1` [Example 43, 4-({[4-(2-Butynyloxy)phenyl]sulfonyl}methyl)-N-hydroxy-1-[3-hydroxy-2-(hydroxymethyl)-2-methylpropanoyl]-4-piperidinecarboxamide], for which the pIC50 is roughly 5.00 on MMP-1, 7.89 in assay [1] and 5.79 on MMP-13.
`CC#CCOc1ccc(S(=O)(=O)CC2(C(=O)NO)CCN(C(=N)N)CC2)cc1` [Example 44] had an MMP1 % inhibition at MMP-1 (printed in the MMP1 IC50 column, concentration not given) of 35%. The pIC50 in assay [1] is 7.25; on MMP-13, 5.62.
In the case of `CC#CCOc1ccc(S(=O)(=O)CC2(C(=O)NO)CCN(CC#CCO)CC2)cc1` [Example 45], the values for the pIC50 (at MMP-1; in assay [1]; on MMP-13) were 5.42, 7.60 and 6.37, respectively.
`CC#CCOc1ccc(S(=O)(=O)C2(C(=O)NO)CCN(C(C)=O)CC2)cc1` [Example 64, 1-Acetyl-4-(4-but-2-ynyloxybenzenesulfonyl)piperidine-4-carboxylic acid hydroxamide]: the pIC50 at MMP-1 was 5.39; in assay [1] it was 7.33; at MMP-13, 6.87.
As for `CC#CCOc1ccc(S(=O)(=O)C2(C(=O)NO)CCN(C(=O)c3ccccc3)CC2)cc1` [Example 65, 1-Benzoyl-4-(4-but-2-ynyloxybenzenesulfonyl)piperidine-4-carboxylic acid hydroxamide], the pIC50 at MMP-1 was 5.45; in assay [1], 7.14; at MMP-13, 6.98.
The like results for `CC#CCOc1ccc(S(=O)(=O)C2(C(=O)NO)CCN(C(=O)c3ccc(OC)cc3)CC2)cc1` [Example 66, 1-(4-Methoxybenzoyl)-4-(4-but-2-ynyloxybenzenesulfonyl)piperidine-4-carboxylic acid hydroxamide] were, in that order, 5.56, 6.97 and 7.09.
Consider `CC#CCOc1ccc(S(=O)(=O)C2(C(=O)NO)CCN(C(=O)N3CCCC3)CC2)cc1` [Example 67, 4-(4-But-2-ynyloxybenzenesulfonyl)-N-hydroxy-1-(pyrrolidine-1-carbonyl)-4-piperidinecarboxamide], for which the pIC50 on MMP-1 was 5.69; in assay [1], 7.14; at MMP-13 it was 6.46.
The like results for `CC#CCOc1ccc(S(=O)(=O)C2(C(=O)NO)CCN(C(=O)OCC)CC2)cc1` [Example 68, Ethyl 4-(4-but-2-ynyloxybenzenesulfonyl)-4-[(hydroxyamino)-carbonyl]-1-piperidinecarboxylate] were, in that order, 5.65, 7.11 and 6.30.
In the same order, the values of `CC#CCOc1ccc(S(=O)(=O)C2(C(=O)NO)CCN(S(=O)(=O)C(F)(F)F)CC2)cc1` [Example 69, 4-(4-But-2-ynyloxybenzenesulfonyl)-N-hydroxy-1-[(trifluoromethyl)-sulfonyl]-4-piperidinecarboxamide] are 5.40, 6.94 and 6.30.
Regarding `CC#CCOc1ccc(S(=O)(=O)C2(C(=O)NO)CCN(C(=O)c3cccnc3)CC2)cc1` [Example 70, 4-(4-But-2-ynyloxybenzenesulfonyl)-N-hydroxy-1-(3-pyridinylcarbonyl)-4-piperidinecarboxamide], the values for the pIC50 (at MMP-1; in assay [1]; on MMP-13) were 5.53, 7.06 and 6.95, respectively.
The like results for `CC#CCOc1ccc(S(=O)(=O)C2(C(=O)NO)CCN(C(=O)c3cccs3)CC2)cc1` [Example 71, 4-(4-but-2-ynyloxybenzenesulfonyl)-N-hydroxy-1-(2-thienylcarbonyl)-4-piperidinecarboxamide] were, in that order, 5.51, 6.95 and 6.74.
In the same order, the values of `CC#CCOc1ccc(S(=O)(=O)C2(C(=O)NO)CCN(S(=O)(=O)c3ccc(OC)cc3)CC2)cc1` [Example 72, 4-(4-but-2-ynyloxybenzenesulfonyl)-N-hydroxy-1-[(4-methoxyphenyl)-sulfonyl]-4-piperidinecarboxamide] are 5.38, 6.66 and 6.43.
The like results for `CC#CCOc1ccc(S(=O)(=O)C2(C(=O)NO)CCN(C(=O)C(C)(CO)CO)CC2)cc1` [Example 74, 4-(4-But-2-ynyloxybenzenesulfonyl)-N-hydroxy-1-[3-hydroxy-2-(hydroxymethyl)-2-methylpropanoyl]-4-piperidinecarboxamide] were, in that order, 5.36, 6.88 and 6.54.
